Consider 14 compounds from PubChem BioAssay (NCI).

Among the test systems are A498 renal; PC-3 prostate; MALME-3M melanoma; OVCAR-4 ovarian; SF-295 CNS; DU-145 prostate; NCI-H460 lung; SF-268 CNS; SR leukemia; HCC-2998 colon.
Holding throughout (experiment): NCI anticancer screen, dose series, 48 h

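Assay format: 96-well plates, 48-hour exposure. GI50: concentration for 50% inhibition of growth. TGI marks complete inhibition of growth.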

With `CCc1nc(-n2c(-c3ccccc3)nc3ccccc3c2=O)nc(N)c1-c1ccc(Cl)cc1`, the GI50 in the assay on A498 renal is 25 µM; with PC-3 prostate it was 5.64 µM; with MALME-3M melanoma, 23.9 µM; with OVCAR-4 ovarian it was above 100 µM; in the assay on SF-295 CNS, 2.26 µM; with DU-145 prostate, 72.6 µM. Further, the GI50 with NCI-H460 lung was 8 µM; with SF-268 CNS, 73.2 µM. Further, the TGI in the assay with A498 renal is 92.7 µM; in the assay with PC-3 prostate, 90.6 µM; in the assay with MALME-3M melanoma, above 100 µM; in the assay on OVCAR-4 ovarian, above 100 µM; in the assay on SF-295 CNS it was 20.2 µM; in the assay with DU-145 prostate, above 100 µM. Also, the TGI in the assay on NCI-H460 lung and in the assay with SF-268 CNS was above 100 µM in each case.
In the case of `CC(=O)O[C@H]1C=CC23OC(=O)[C@]1(C)[C@H]2[C@H](C(=O)O)C12CC(=O)[C@@](CO)(CC[C@H]13)C2`, the TGI in the assay with SR leukemia, in the assay with HCC-2998 colon, with OVCAR-4 ovarian, in the assay with SF-295 CNS, in the assay on NCI-H460 lung and in the assay with SF-268 CNS was above 100 µM throughout.
On to `O=C(/C(=C/c1ccccc1)c1ccccc1)N1c2ccccc2CC1c1c[nH]c2ccccc12` (configuration not stated), for which the TGI in the assay on A498 renal, in the assay on SR leukemia, in the assay on HCC-2998 colon, in the assay with MALME-3M melanoma, in the assay on OVCAR-4 ovarian and with SF-295 CNS was above 100 µM in each case. Further, the TGI with NCI-H460 lung is above 100 µM.
For `C#CCN(C)C(=O)N(CC#C)N=O`, the TGI with A498 renal, in the assay with MALME-3M melanoma, with OVCAR-4 ovarian, in the assay on SF-295 CNS, with NCI-H460 lung and in the assay on SF-268 CNS was above 100 µM each time.
For `COC(=O)C1CC(C(=O)OC)c2nc3cc(C)c(C)cc3nc21` (configuration not stated), the TGI in the assay with A498 renal, with HCC-2998 colon, with MALME-3M melanoma, with OVCAR-4 ovarian, with SF-295 CNS and with NCI-H460 lung was above 100 µM each time. The TGI in the assay with SF-268 CNS is above 100 µM.
`C[N+](C)(C)CC1CCCC/C1=N\O` (configuration not stated): the TGI with A498 renal, in the assay on HCC-2998 colon, in the assay with MALME-3M melanoma, in the assay on OVCAR-4 ovarian, in the assay with SF-295 CNS and in the assay with NCI-H460 lung was above 100 µM each time. This compound also displayed a TGI in the assay with SF-268 CNS above 100 µM.
`C[n+]1c(N)n(C(=O)OCc2ccccc2)c(=O)c2c1ncn2C(=O)OCc1ccccc1`: the TGI in the assay with A498 renal, in the assay on HCC-2998 colon, with MALME-3M melanoma, with OVCAR-4 ovarian, in the assay with SF-295 CNS and in the assay with NCI-H460 lung was above 100 µM each time. For the same compound, the TGI in the assay with SF-268 CNS was above 100 µM.
For `Cn1ccnc1C[N-]Cc1nccn1C.O=[N+]([O-])[O-].O=[N+]([O-])[O-].[Cu+2]`, the GI50 is above 100 µM in the assay on HCC-2998 colon; 2.49 µM with OVCAR-4 ovarian; above 100 µM with SF-295 CNS; 62.8 µM with NCI-H460 lung; above 100 µM with SF-268 CNS. Further, the TGI with HCC-2998 colon, with OVCAR-4 ovarian, with SF-295 CNS, in the assay with NCI-H460 lung and in the assay with SF-268 CNS was above 100 µM in each case.
With `CN(C)CCNc1nc(-c2cccs2)cc(-c2cccs2)n1`, the TGI was 25.4 µM in the assay with A498 renal; 15.4 µM in the assay on SR leukemia; 25.3 µM in the assay with HCC-2998 colon; 30.9 µM in the assay with MALME-3M melanoma; 28.2 µM in the assay on SF-295 CNS; 18.3 µM in the assay with NCI-H460 lung.
For the compound `N#Cc1cccc(OCc2ccccc2COc2cccc(C#N)c2)c1`, the GI50 was 25.5 µM with PC-3 prostate; above 100 µM in the assay on HCC-2998 colon; 4.02 µM with MALME-3M melanoma; 54.8 µM in the assay on OVCAR-4 ovarian; 5.64 µM with SF-295 CNS; 25.9 µM in the assay on DU-145 prostate. In addition, the GI50 in the assay on NCI-H460 lung is 40.8 µM; in the assay with SF-268 CNS, 25 µM. Moreover, the TGI in the assay on PC-3 prostate is above 100 µM; in the assay with HCC-2998 colon it was above 100 µM; in the assay on MALME-3M melanoma it was 38 µM; in the assay with OVCAR-4 ovarian it was above 100 µM; in the assay with SF-295 CNS, 20.3 µM; in the assay with DU-145 prostate, 99.1 µM. Moreover, the TGI in the assay on NCI-H460 lung is above 100 µM; with SF-268 CNS, 61.2 µM.
Turning to `COc1ccc(C2=NOP(c3ccccc3)(c3ccccc3)(c3ccccc3)C2)cc1`, the TGI in the assay with A498 renal was 89.7 µM; in the assay on SR leukemia, 34.9 µM; with HCC-2998 colon it was above 76.5 µM; in the assay on MALME-3M melanoma it was 50.9 µM; in the assay with OVCAR-4 ovarian, above 100 µM; with SF-295 CNS it was 61.2 µM. The TGI is above 45.1 µM with NCI-H460 lung and above 100 µM in the assay on SF-268 CNS.
Take `CC(C)(C)C(=O)OCc1nc2cc3c(cc2c(=O)[nH]1)CCC3=O`: the GI50 in the assay with A498 renal, in the assay with PC-3 prostate, with HCC-2998 colon, with MALME-3M melanoma, in the assay on OVCAR-4 ovarian and in the assay on SF-295 CNS was above 100 µM in each case. Further, the GI50 in the assay on DU-145 prostate, with NCI-H460 lung and with SF-268 CNS was above 100 µM throughout. Moreover, the TGI in the assay with A498 renal, in the assay with PC-3 prostate, in the assay on HCC-2998 colon, in the assay with MALME-3M melanoma, in the assay on OVCAR-4 ovarian and in the assay on SF-295 CNS was above 100 µM each time. Further, the TGI in the assay with DU-145 prostate, in the assay on NCI-H460 lung and in the assay with SF-268 CNS was above 100 µM in each case.
`Cc1ccc(NC(=O)CCC(=O)C(C#N)c2ccccc2)cc1C` (configuration not stated): the TGI in the assay on A498 renal, in the assay on HCC-2998 colon, in the assay with MALME-3M melanoma, in the assay on OVCAR-4 ovarian, with SF-295 CNS and in the assay on NCI-H460 lung was above 100 µM throughout. The TGI with SF-268 CNS is above 100 µM.
Take `C#CCN(Cc1nc2cc(C(F)(F)F)ccc2nc1-c1ccccc1)c1ccc(F)c(F)c1`: the GI50 with A498 renal is 39.9 µM; with PC-3 prostate it was 37.6 µM; in the assay with HCC-2998 colon it was 44.8 µM; in the assay with OVCAR-4 ovarian, above 100 µM; with SF-295 CNS, 39.7 µM; in the assay on DU-145 prostate, 37.3 µM. For the same compound, the GI50 in the assay with NCI-H460 lung was 26.5 µM; in the assay on SF-268 CNS, 22.1 µM. Moreover, the TGI with A498 renal was above 100 µM; with PC-3 prostate, above 100 µM; in the assay with HCC-2998 colon, 96.9 µM; with OVCAR-4 ovarian it was above 100 µM; in the assay with SF-295 CNS it was above 100 µM; in the assay with DU-145 prostate, above 100 µM. Also, the TGI in the assay with NCI-H460 lung and in the assay on SF-268 CNS was above 100 µM each time.
